pEC50, pIC50: −log10 of the molar value. Active and inactive are the calls of the source. No cut-off for these calls is given here.
How the values were obtained:
[1] = molecular target: Dual specificity mitogen-activated protein kinase kinase 1 (Homo sapiens, UniProt Q02750); experiment: Inhibition of MEK1-mediated ERK1 phosphorylation using IPTTPITTYFFFK-5FAM-COOH as substrate by fluorescent polarization assay
COLO 205 = experiment: Cytotoxicity against human COLO205 cells after 72 hrs by MTS assay; settings: COLO 205, 72 h
A-375 = experiment: Cytotoxicity against human A375 cells after 72 hrs by MTS assay; settings: A-375, 72 h
[2] = Half life in human liver microsomes; assay type: ADME, Microsome
[3] = Half life in rat liver microsomes; assay type: ADME, Microsome
[4] = Clearance in rat at 1 mg/kg, iv and 5 mg/kg, po; assay type: ADME, organism-based; settings: in vivo
Rattus norvegicus = experiment: Dose normalized AUC in rat at 1 mg/kg, iv and 5 mg/kg, po; assay type: ADME, organism-based; settings: in vivo
[5] = Volume of distribution at steady state in rat at 1 mg/kg, iv and 5 mg/kg, po; assay type: ADME, organism-based; settings: in vivo, read-out: Vdss
[6] = Oral bioavailability in rat at 5 mg/kg; assay type: ADME, organism-based; settings: in vivo
[7] = molecular target: Tyrosine-protein kinase ABL1 (Homo sapiens) (UniProt P00519); experiment: Inhibition of ABL1 at 10 uM
Sequence of Tyrosine-protein kinase ABL1 (Homo sapiens) (P00519 whole entry): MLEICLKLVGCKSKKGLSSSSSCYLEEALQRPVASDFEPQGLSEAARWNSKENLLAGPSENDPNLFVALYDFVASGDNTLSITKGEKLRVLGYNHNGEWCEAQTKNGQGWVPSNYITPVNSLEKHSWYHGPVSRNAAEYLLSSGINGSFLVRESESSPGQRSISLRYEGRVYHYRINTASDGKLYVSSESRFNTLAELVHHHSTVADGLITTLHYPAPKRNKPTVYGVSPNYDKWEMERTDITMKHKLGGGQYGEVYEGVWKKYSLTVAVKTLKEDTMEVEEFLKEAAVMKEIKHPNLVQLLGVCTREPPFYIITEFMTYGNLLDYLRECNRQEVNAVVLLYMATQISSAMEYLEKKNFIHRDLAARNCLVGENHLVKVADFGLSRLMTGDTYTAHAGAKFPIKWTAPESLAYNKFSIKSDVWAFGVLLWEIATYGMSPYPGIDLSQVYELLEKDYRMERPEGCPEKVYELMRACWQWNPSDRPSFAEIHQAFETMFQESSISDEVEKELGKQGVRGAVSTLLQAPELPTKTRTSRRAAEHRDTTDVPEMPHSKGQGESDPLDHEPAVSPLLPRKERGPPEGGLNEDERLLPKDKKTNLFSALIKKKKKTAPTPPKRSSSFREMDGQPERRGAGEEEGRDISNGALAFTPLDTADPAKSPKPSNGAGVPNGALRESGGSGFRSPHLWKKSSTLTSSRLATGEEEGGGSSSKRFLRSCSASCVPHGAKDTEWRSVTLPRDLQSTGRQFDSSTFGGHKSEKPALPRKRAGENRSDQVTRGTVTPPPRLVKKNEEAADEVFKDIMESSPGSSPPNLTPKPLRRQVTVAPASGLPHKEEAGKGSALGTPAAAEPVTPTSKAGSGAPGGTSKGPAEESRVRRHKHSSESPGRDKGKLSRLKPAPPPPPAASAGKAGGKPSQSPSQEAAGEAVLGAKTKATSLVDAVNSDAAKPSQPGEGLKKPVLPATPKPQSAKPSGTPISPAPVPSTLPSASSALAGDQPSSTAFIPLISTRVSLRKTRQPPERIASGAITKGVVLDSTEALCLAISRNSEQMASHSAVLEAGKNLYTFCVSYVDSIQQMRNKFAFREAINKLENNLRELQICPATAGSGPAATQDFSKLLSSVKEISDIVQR

[8] = molecular target: RAC-gamma serine/threonine-protein kinase (Homo sapiens) (UniProt Q9Y243); experiment: Inhibition of AKT3 at 10 uM
[9] = molecular target: RAF proto-oncogene serine/threonine-protein kinase (Homo sapiens) (UniProt P04049); experiment: Inhibition of c-RAF at 10 uM
Sequence of RAF proto-oncogene serine/threonine-protein kinase (Homo sapiens) (P04049 whole entry): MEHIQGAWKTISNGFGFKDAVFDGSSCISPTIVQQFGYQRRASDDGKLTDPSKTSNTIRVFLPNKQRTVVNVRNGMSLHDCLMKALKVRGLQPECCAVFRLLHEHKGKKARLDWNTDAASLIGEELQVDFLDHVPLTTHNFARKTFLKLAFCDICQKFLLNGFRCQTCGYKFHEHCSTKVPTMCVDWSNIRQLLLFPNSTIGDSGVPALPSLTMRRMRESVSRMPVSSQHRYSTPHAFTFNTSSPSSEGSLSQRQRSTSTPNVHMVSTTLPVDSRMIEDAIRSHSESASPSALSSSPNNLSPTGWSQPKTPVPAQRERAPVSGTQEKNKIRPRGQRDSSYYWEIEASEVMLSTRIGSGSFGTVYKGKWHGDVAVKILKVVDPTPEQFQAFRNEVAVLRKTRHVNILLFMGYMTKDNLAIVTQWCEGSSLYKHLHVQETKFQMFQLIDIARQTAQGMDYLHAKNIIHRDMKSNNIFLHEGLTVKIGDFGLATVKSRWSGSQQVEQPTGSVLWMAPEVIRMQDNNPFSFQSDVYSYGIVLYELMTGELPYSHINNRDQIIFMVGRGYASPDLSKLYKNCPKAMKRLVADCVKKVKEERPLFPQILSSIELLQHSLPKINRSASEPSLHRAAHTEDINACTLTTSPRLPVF

[10] = molecular target: Calcium/calmodulin-dependent protein kinase type 1D (Homo sapiens) (UniProt Q8IU85); experiment: Inhibition of CAMK1delta at 10 uM
[11] = molecular target: Cyclin-dependent kinase 2/cyclin A (Homo sapiens) (UniProt P24941+P20248+P78396); experiment: Inhibition of CDK2/cyclin A at 10 uM; assay type: protein-complex assay
[12] = molecular target: Hepatocyte growth factor receptor (Homo sapiens) (UniProt P08581); experiment: Inhibition of cMET at 10 uM
[13] = molecular target: Proto-oncogene tyrosine-protein kinase Src (Homo sapiens) (UniProt P12931); experiment: Inhibition of cSRC at 10 uM
Sequence of Proto-oncogene tyrosine-protein kinase Src (Homo sapiens) (P12931 2-536 limits assumed): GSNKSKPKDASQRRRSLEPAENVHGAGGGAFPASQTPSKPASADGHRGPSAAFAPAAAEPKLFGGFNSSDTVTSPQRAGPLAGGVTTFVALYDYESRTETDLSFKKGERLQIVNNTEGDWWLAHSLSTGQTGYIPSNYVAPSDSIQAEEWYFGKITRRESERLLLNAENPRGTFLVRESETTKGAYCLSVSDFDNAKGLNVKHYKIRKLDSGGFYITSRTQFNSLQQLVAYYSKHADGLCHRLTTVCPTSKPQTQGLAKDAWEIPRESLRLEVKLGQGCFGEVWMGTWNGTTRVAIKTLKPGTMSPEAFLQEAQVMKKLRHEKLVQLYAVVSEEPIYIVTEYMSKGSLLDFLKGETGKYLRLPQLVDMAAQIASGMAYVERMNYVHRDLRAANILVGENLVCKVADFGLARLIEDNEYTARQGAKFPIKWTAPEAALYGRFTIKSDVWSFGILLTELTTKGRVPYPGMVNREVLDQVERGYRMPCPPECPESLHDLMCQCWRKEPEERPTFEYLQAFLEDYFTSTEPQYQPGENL

[14] = molecular target: Epidermal growth factor receptor (Homo sapiens) (UniProt P00533); experiment: Inhibition of EGFR at 10 uM
[15] = molecular target: Glycogen synthase kinase-3 beta (Homo sapiens) (UniProt P49841); experiment: Inhibition of GSK3beta at 10 uM
[16] = molecular target: Insulin receptor (Homo sapiens) (UniProt P06213); experiment: Inhibition of IR at 10 uM
[17] = molecular target: T1, Tyrosine-protein kinase JAK3 (Homo sapiens) (UniProt P52333); experiment: Inhibition of JAK3 at 10 uM
T1 sequence (whole entry): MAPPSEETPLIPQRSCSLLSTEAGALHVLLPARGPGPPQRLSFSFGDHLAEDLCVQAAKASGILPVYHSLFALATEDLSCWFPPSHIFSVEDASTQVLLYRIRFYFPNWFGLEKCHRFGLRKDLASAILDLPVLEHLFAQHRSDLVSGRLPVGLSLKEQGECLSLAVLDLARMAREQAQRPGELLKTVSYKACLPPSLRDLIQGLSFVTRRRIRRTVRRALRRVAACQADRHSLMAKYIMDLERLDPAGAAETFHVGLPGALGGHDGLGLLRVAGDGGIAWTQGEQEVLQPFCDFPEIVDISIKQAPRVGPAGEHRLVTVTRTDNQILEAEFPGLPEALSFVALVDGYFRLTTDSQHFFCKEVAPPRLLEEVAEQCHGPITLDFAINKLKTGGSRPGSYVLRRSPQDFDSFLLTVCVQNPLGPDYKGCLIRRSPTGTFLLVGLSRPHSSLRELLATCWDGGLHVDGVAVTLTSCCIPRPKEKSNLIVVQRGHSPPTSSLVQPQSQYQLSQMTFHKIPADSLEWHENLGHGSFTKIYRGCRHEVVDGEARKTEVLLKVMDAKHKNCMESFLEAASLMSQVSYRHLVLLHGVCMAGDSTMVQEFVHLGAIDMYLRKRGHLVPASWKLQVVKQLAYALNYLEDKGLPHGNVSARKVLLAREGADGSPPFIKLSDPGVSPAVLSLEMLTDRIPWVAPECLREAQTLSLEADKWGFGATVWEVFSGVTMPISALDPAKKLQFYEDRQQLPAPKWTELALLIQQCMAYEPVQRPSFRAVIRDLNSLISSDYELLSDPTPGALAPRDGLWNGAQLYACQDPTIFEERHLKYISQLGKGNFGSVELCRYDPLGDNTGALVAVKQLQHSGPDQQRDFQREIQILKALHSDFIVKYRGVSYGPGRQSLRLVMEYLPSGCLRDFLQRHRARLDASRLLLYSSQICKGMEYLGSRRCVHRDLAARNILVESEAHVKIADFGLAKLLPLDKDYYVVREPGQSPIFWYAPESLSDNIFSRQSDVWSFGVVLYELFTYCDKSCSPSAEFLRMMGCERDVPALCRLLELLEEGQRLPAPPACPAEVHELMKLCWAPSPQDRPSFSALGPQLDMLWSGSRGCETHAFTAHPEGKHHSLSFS

[18] = molecular target: Mitogen-activated protein kinase 14 (Homo sapiens) (UniProt Q16539); experiment: Inhibition of p38alpha at 10 uM
[19] = molecular target: Platelet-derived growth factor receptor beta (Homo sapiens) (UniProt P09619); experiment: Inhibition of PDGFRbeta at 10 uM
Sequence of Platelet-derived growth factor receptor beta (Homo sapiens) (P09619 whole entry): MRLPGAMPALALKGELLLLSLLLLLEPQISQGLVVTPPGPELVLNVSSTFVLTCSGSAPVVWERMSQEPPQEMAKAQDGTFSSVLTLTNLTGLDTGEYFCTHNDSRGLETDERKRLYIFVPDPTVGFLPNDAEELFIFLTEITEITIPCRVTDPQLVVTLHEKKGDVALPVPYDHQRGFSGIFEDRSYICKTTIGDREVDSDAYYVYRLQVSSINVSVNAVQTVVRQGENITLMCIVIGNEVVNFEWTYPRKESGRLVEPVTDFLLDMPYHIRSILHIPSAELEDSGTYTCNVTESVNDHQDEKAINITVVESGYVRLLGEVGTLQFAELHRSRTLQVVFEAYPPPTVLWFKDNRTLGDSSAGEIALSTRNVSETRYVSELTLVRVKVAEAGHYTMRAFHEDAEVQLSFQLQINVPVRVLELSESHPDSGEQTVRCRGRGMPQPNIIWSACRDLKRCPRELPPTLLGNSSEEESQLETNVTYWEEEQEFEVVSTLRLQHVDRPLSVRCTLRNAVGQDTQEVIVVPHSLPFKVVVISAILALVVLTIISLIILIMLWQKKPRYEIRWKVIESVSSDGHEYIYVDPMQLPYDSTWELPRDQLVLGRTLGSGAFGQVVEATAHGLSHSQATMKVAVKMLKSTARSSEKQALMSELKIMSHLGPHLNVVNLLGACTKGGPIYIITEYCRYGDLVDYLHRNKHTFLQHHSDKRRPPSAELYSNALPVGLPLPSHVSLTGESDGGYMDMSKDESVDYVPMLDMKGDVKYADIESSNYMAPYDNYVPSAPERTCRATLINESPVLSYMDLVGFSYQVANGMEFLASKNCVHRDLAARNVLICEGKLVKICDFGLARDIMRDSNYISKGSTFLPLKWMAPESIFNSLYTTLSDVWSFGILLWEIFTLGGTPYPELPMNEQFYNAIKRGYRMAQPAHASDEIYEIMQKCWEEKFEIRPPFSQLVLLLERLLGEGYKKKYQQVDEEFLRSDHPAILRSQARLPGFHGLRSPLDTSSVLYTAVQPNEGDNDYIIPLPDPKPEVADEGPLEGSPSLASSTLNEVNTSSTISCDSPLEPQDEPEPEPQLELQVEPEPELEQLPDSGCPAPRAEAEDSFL

[20] = molecular target: Protein kinase C alpha type (Homo sapiens) (UniProt P17252); experiment: Inhibition of PKCalpha at 10 uM
[21] = molecular target: Serine/threonine-protein kinase PLK3 (Homo sapiens) (UniProt Q9H4B4); experiment: Inhibition of PLK3 at 10 uM
Sequence of Serine/threonine-protein kinase PLK3 (Homo sapiens) (Q9H4B4 whole entry, looked up): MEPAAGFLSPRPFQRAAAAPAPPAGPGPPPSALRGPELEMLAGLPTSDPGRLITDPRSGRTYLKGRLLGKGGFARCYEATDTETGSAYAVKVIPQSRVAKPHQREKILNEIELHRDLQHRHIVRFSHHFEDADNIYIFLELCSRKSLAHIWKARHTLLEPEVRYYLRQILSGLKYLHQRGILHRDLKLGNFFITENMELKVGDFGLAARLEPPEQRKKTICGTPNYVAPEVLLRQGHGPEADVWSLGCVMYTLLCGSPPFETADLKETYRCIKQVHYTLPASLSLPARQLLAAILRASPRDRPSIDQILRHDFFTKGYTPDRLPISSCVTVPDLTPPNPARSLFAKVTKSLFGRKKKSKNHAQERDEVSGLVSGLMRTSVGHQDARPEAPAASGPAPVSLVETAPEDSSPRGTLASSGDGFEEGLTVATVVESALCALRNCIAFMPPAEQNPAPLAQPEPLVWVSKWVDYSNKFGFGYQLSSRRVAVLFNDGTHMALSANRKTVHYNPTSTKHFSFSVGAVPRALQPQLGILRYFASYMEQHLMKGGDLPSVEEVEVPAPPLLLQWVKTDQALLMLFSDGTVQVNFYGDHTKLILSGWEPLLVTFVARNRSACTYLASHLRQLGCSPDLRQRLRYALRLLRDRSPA

[22] = molecular target: Tyrosine-protein kinase SYK (Homo sapiens) (UniProt P43405); experiment: Inhibition of Syk at 10 uM
[23] = molecular target: Angiopoietin-1 receptor (Homo sapiens) (UniProt Q02763); experiment: Inhibition of Tie2 at 10 uM
[24] = Inhibition of cytochrome P450 at 10 uM; assay type: ADME
[25] = molecular target: 3-phosphoinositide-dependent protein kinase 1 (Homo sapiens) (UniProt O15530); experiment: Inhibition of PDK1 at 10 uM
Sequence of 3-phosphoinositide-dependent protein kinase 1 (Homo sapiens) (O15530 whole entry, looked up): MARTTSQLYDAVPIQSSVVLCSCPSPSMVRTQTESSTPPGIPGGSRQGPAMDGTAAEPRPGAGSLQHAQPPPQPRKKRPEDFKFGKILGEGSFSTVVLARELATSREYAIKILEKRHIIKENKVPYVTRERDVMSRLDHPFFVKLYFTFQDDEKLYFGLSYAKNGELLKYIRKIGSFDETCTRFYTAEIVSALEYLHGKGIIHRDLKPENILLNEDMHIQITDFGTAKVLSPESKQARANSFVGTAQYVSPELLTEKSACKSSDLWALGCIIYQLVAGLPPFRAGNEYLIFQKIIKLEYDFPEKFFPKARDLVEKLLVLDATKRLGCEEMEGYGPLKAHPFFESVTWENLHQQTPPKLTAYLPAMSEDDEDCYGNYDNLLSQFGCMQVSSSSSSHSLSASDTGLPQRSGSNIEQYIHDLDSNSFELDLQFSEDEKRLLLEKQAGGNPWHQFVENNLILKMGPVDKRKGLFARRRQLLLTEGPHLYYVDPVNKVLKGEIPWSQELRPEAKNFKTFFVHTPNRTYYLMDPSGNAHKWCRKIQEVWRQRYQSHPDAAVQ

Sequence of Dual specificity mitogen-activated protein kinase kinase 1 (Q02750 whole entry): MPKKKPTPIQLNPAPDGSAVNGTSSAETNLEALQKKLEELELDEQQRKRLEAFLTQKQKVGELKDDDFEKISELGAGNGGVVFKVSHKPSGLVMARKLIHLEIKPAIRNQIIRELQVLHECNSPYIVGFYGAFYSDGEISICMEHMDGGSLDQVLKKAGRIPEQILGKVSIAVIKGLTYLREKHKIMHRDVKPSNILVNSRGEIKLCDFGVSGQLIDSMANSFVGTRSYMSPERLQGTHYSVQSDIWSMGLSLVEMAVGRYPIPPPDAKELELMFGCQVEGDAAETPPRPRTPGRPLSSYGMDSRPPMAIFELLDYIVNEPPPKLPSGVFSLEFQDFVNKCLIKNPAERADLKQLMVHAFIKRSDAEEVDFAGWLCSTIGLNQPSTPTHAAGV

Compound: O=C(NOCCO)c1c(Nc2ccc(I)cc2F)c(Cl)c(=O)n2c1CCC2
- pIC50 [1]: 6.96
- pEC50 (COLO 205): 8.52
- pEC50 (A-375): 8.30
- half-life [2]: 47 min
- half-life [3]: 54 min

Compound: Cn1c(Nc2ccc(Br)cc2F)c(C(=O)NOC[C@@H](O)CO)c2c1C(=O)CCC2
- pIC50 [1]: 7.12
- pEC50 (COLO 205): 7.28
- pEC50 (A-375): 7.12
- half-life [2]: 76 min
- half-life [3]: 70 min

Compound: Cn1c(Nc2ccc(I)cc2F)c(C(=O)NOC[C@H](O)CO)c2c1C(=O)CC2
- pIC50 [1]: 7.27
- pEC50 (COLO 205): 8.05
- pEC50 (A-375): 7.89
- half-life [2]: 86 min
- half-life [3]: 54 min

Compound: C#Cc1ccc(Nc2c(C(=O)NOCCO)c3n(c(=O)c2F)CCC3)c(F)c1
- pIC50 [1]: 7.16
- pEC50 (COLO 205): 7.92
- pEC50 (A-375): 7.48
- half-life [2]: 128 min
- half-life [3]: > 200 min

Compound: Cn1c(Nc2ccc(I)cc2F)c(C(=O)NOC[C@H](O)CO)c2c1C(=O)CCC2
- pIC50 [1]: 7.70
- pEC50 (COLO 205): 8.60
- pEC50 (A-375): 8.52
- half-life [2]: 36 min
- half-life [3]: 26 min
- clearance [4]: 23.7 mL/min/kg
- AUC/dose (Rattus norvegicus): 88 ng·h/mL/mg/kg
- Vd [5]: 1.16 L/kg
- bioavailability [6]: 12%
- inhibition [7]: inactive
- inhibition [8]: inactive
- inhibition [9]: inactive
- inhibition [10]: inactive
- inhibition [11]: inactive
- inhibition [12]: inactive
- inhibition [13]: inactive
- inhibition [14]: inactive
- inhibition [15]: inactive
- inhibition [16]: inactive
- inhibition [17]: inactive
- inhibition [18]: inactive
- inhibition [19]: inactive
- inhibition [20]: inactive
- inhibition [21]: inactive
- inhibition [22]: inactive
- inhibition [23]: inactive
- inhibition (INH) [24]: Not Active
- inhibition [25]: inactive

Compound: O=C(NOC[C@@H](O)CO)c1c(Nc2ccc(I)cc2F)c(F)c(=O)n2c1CCC2
- pIC50 [1]: 7.03
- pEC50 (COLO 205): 7.36
- pEC50 (A-375): 6.86
- half-life [2]: > 200 min
- half-life [3]: > 200 min
- inhibition [7]: inactive
- inhibition [8]: inactive
- inhibition [9]: inactive
- inhibition [10]: inactive
- inhibition [11]: inactive
- inhibition [12]: inactive
- inhibition [13]: inactive
- inhibition [14]: inactive
- inhibition [15]: inactive
- inhibition [16]: inactive
- inhibition [17]: inactive
- inhibition [18]: inactive
- inhibition [19]: inactive
- inhibition [20]: inactive
- inhibition [21]: inactive
- inhibition [22]: inactive
- inhibition [23]: inactive
- inhibition (INH) [24]: Not Active
- inhibition [25]: inactive

Compound: CC(=O)c1cc(C(=O)NOCCO)c(Nc2ccc(I)cc2F)n1C
- pEC50 (COLO 205): 7.92
- pEC50 (A-375): 7.85
- AUC/dose (Rattus norvegicus): 144 ng·h/mL/mg/kg

Compound: Cn1c(Nc2ccc(I)cc2F)c(C(=O)NOCCO)c2c1C(=O)CCC2
- pIC50 [1]: 7.85
- pEC50 (COLO 205): 9.00
- pEC50 (A-375): 9.00
- half-life [2]: 3.7 min
- half-life [3]: 5.5 min

Compound: Cn1c(Nc2ccc(Br)cc2F)c(C(=O)NOC[C@H](O)CO)c2c1C(=O)CCC2
- pIC50 [1]: 7.28
- pEC50 (COLO 205): 7.24
- pEC50 (A-375): 7.14
- half-life [2]: 94 min
- half-life [3]: 85 min

Compound: C#Cc1ccc(Nc2c(C(=O)NOC[C@H](O)CO)c3c(n2C)C(=O)CCC3)c(F)c1
- pIC50 [1]: 7.39
- pEC50 (COLO 205): 7.21
- pEC50 (A-375): 7.14
- half-life [2]: > 200 min
- half-life [3]: > 200 min

Compound: Cn1c(Nc2ccc(Br)cc2F)c(C(=O)NOCCO)c2c1C(=O)CCC2
- pIC50 [1]: 7.74
- pEC50 (COLO 205): 7.47
- pEC50 (A-375): 7.51
- half-life [2]: 25 min
- half-life [3]: 20 min

Compound: O=C(NOCCO)c1c(Nc2ccc(I)cc2F)cc(=O)n2c1CCC2
- pEC50 (COLO 205): 8.30
- pEC50 (A-375): 7.89
- half-life [2]: 134 min
- half-life [3]: 62 min

Compound: Cn1c(Nc2ccc(I)cc2F)c(C(=O)NOC[C@@H](O)CO)c2c1C(=O)CC2
- pIC50 [1]: 7.96
- pEC50 (COLO 205): 8.30
- pEC50 (A-375): 8.15
- half-life [2]: 64 min
- half-life [3]: 54 min

Compound: Cn1c(Nc2ccc(I)cc2F)c(C(=O)NOC[C@@H](O)CO)c2c1C(=O)CCC2
- pIC50 [1]: 7.77
- pEC50 (COLO 205): 8.70
- pEC50 (A-375): 8.60
- half-life [2]: 22 min
- half-life [3]: 36 min

Compound: Cn1c(Nc2ccc(I)cc2F)c(C(=O)NOCCO)c2c1C(=O)CC2
- pEC50 (COLO 205): 8.70
- pEC50 (A-375): 8.40
- half-life [2]: 10 min
- half-life [3]: 14 min

Compound: O=C(NOC[C@H](O)CO)c1c(Nc2ccc(I)cc2F)c(F)c(=O)n2c1CCC2
- pIC50 [1]: 7.41
- pEC50 (COLO 205): 7.57
- pEC50 (A-375): 7.16
- half-life [2]: > 200 min
- half-life [3]: > 200 min

Compound: O=C(NOCCO)c1c(Nc2ccc(I)cc2F)c(F)c(=O)n2c1CCCC2
- pIC50 [1]: 7.24
- pEC50 (COLO 205): 7.92
- pEC50 (A-375): 7.52
- half-life [2]: 111 min
- half-life [3]: 41 min
